Results reported in patent US8546421B1, “Oncogenic-RAS-signal dependent lethal compounds” (The Trustees of Columbia University in the City of New York, priority 2007, dated 2013).
Converted amounts (≈) assume the structure as drawn. “Also recorded” adds a separate entry of the source. Read-outs that look alike come from different tables or passages of the source.

Assays:
[1] = system: RPMI-8226; assay: NCI60 anti-cancer screening; details: for GI50 / CC50: Homo sapiens; for GI50 / GI 100%: RPMI-8226; for CC50: RPMI-8226, read-out: LC 50%; for GI 100%: Leukemia
[2] = system: SN12C; assay: NCI60 anti-cancer screening; details: for GI50 / CC50: Homo sapiens; for CC50: read-out: LC 50%; for GI 100%: Renal Cancer
[3] = system: SNB-75; assay: NCI60 anti-cancer screening; details: for GI50 / CC50: Homo sapiens; for GI50 / GI 100%: SNB-75; for CC50: SNB-75, read-out: LC 50%; for GI 100%: CNS Cancer
[4] = system: BJ-TERT/LT/ST/RAS^V12 cells; assay: Alamar blue growth inhibition in dilution series; assay type: cell-based, human
[5] = system: A549, Calu-1, PaCa, and HCT116 cells; assay: Alamar blue assay in KRAS-mutation-harboring cancer cells; assay type: cell-based, human
Procedure: A549, Calu-1, HCT116 and MIA PaCa-2 cell lines have an oncogenic mutation in the KRAS gene. Compounds which tested positive in the oncogenic HRAS primary screen were also tested for their selectivity against oncogenic KRAS which is more commonly mutated in human cancers.

[6] = system: 786-0; assay: NCI60 anti-cancer screening; details: for GI 100% / GI50: 786-0; for GI 100%: Renal Cancer; for GI50 / CC50: Homo sapiens; for CC50: 786-0, read-out: LC 50%
[7] = system: SR; assay: NCI60 anti-cancer screening; details: for GI50 / CC50: Homo sapiens; for CC50: read-out: LC 50%; for GI 100%: Leukemia
[8] = system: TK-10; assay: NCI60 anti-cancer screening; details: for GI50 / CC50: Homo sapiens; for GI50 / GI 100%: TK-10; for CC50: TK-10, read-out: LC 50%; for GI 100%: Renal Cancer
[9] = system: MOLT-4; assay: NCI60 anti-cancer screening; details: for GI50 / CC50: Homo sapiens; for GI50 / GI 100%: MOLT-4; for CC50: MOLT-4, read-out: LC 50%; for GI 100%: Leukemia
[10] = system: COLO 205; assay: NCI60 anti-cancer screening; details: for GI 100% / GI50: COLO 205; for GI 100%: Colon Cancer; for GI50 / CC50: Homo sapiens; for CC50: COLO 205, read-out: LC 50%
[11] = system: HL-60(TB); details: Leukemia
[12] = system: ACHN; assay: NCI60 anti-cancer screening; details: for GI50 / CC50: Homo sapiens; for CC50: read-out: LC 50%; for GI 100%: Renal Cancer
[13] = system: BT-549; assay: NCI60 anti-cancer screening; details: for GI 100% / GI50: BT-549; for GI 100%: Breast Cancer; for GI50 / CC50: Homo sapiens; for CC50: BT-549, read-out: LC 50%
[14] = system: SF-268; assay: NCI60 anti-cancer screening; details: for GI50 / CC50: Homo sapiens; for GI50 / GI 100%: SF-268; for CC50: SF-268, read-out: LC 50%; for GI 100%: CNS Cancer
[15] = system: MCF-7; assay: NCI60 anti-cancer screening; details: for GI50 / CC50: Homo sapiens; for GI50: MCF7; for CC50: MCF7, read-out: LC 50%; for GI 100%: MCF-7, Breast Cancer
[16] = system: UACC-257; assay: NCI60 anti-cancer screening; details: for GI50 / CC50: Homo sapiens; for GI50 / GI 100%: UACC-257; for CC50: UACC-257, read-out: LC 50%; for GI 100%: Melanoma
[17] = system: BJ cell system (BJ-TERT, BJ-TERT/LT/ST, BJ-TERT/LT/ST/RAS^V12, DRD cells); assay: Alamar blue potency and selectivity in the engineered BJ cell system; details: alamar blue
Procedure: Empty “step-daughter plates” were filled with 50 μL DMEM, except for columns 3 and 13, where 100 μL of hit compound solution were cherry-picked from daughter plates. After compound transfer, 2-fold dilution series across columns 3 through 12 and columns 13 through 22 was made by transferring 50 μL of compound solution to the next column successively (10-point dilution series), with extensive mixing. Hit-picking and 2-fold dilution series were carried out using Biomek FX Span-8 module (Beckman Coulter). Assay plates were prepared by seeding 1,000 BJ-TERT, BJ-TERT/LT/ST, and BJ-TERT/LT/ST/RAS^V12 cells per well in 36 μL growth medium. Cells in assay plates were treated with compounds from step-daughter plates by transferring 4 μL. The final concentration of the compound was 5.33 μg/mL to 0.01 μg/mL in this 10-point, 2-fold dilution series. Assay plates were returned to the culture incubator and maintained for 48 hours before adding alamar blue.
Fresh daughter plates were made from the mother plate and cherry-picked hits from the first round, 2-fold dilution series experiment as described above. Assay plates were prepared by seeding 1,000 BJ-TERT, BJ-TERT/LT/ST, BJ-TERT/LT/ST/RAS^V12 or BJ-TERT/p53DD/CDK4/cyclinD1/ST/RAS^V12 (DRD) cells per well in 32 μL growth media. Cells in the assay plates were treated with compounds from the step-daughter plate by transferring 8 μL solution. The final concentration of the compound was 10.66 μg/mL to 0.02 μg/mL in a 10-point, 2-fold dilution series manner. Assay plates were returned to the culture incubator and maintained for 48 hours before adding alamar blue.
Cells were seeded in 384-well assay plates, treated with candidate compounds, and incubated in the culture incubator in 40 μL culture volume per well. […] Plates were incubated further for 16 hours to allow reduction of alamar blue, which results in the generation of red fluorescence. The fluorescence intensity was determined using a Victor 3 plate reader (Perkin Elmer) with a 535 nm excitation filter and a 590 nm emission filter.
In the subsequent two-fold dilution series testing, selectivity was calculated as the ratio of GI50 values in BJ-TERT/LT/ST and BJ-TERT/LT/ST/RAS^V12 cells. […] DRD cells are also derived from BJ primary cells and the effects of mutations in both lines should be similar.

[18] = system: MALME-3M; assay: NCI60 anti-cancer screening; details: for GI50 / CC50: Homo sapiens, Malme-3M; for CC50: read-out: LC 50%; for GI 100%: MALME-3M, Melanoma
[19] = system: MDA-MB-231/ATCC; assay: NCI60 anti-cancer screening; details: for GI50 / CC50: Homo sapiens; for GI50: MDA-MB-231; for CC50: MDA-MB-231, read-out: LC 50%; for GI 100%: MDA-MB-231/ATCC, Breast Cancer
[20] = system: OVCAR-3; assay: cells; details: Homo sapiens; for GI50: OVCAR-3; for CC50: OVCAR-3, read-out: LC 50%
[21] = system: LOX IMVI; assay: NCI60 anti-cancer screening; details: for GI50 / CC50: Homo sapiens; for CC50: read-out: LC 50%; for GI 100%: Melanoma
[22] = system: BJ-TERT/LT/ST/RAS^V12 cells; assay: Counter screening with iron chelators; assay type: cell-based, human; details: DFOM and three additional iron-binding compounds; 24 hours
Procedure: Cells were treated with iron chelators by transferring 4 μL of 1 mM deferoxamine mesylate (Calbiochem, cat.#252750), 500 μM compound 1a (Chembridge, cat.#5175092), 1 mM compound 2 (Ryan Scientific, cat.#LT01784723), or 100 μM compound 311 (Chembridge, cat.#5135701) in growth media to the assay plate. Then, 4 μL was transferred from the ‘10× lethal plate’ (described in ‘counter screening with biologically active compounds’) to the assay plate in order to induce cell death. Assay plates were incubated for 24 hours and alamar blue was added to the plates at a final concentration of 10%.

[23] = system: RXF393; assay: NCI60 anti-cancer screening; details: for GI50 / CC50: Homo sapiens; for GI50: RXF 393; for CC50: RXF 393, read-out: LC 50%; for GI 100%: RXF393, Renal Cancer
[24] = system: KM12; assay: NCI60 anti-cancer screening; details: for GI50 / CC50: Homo sapiens; for GI50 / GI 100%: KM12; for CC50: KM12, read-out: LC 50%; for GI 100%: Colon Cancer
[25] = system: MDA-MB-435; assay: NCI60 anti-cancer screening; details: for GI50 / CC50: Homo sapiens; for GI50 / GI 100%: MDA-MB-435; for CC50: MDA-MB-435, read-out: LC 50%; for GI 100%: Breast Cancer
[26] = system: SK-MEL-5; assay: NCI60 anti-cancer screening; details: for GI50 / CC50: Homo sapiens; for GI50 / GI 100%: SK-MEL-5; for CC50: SK-MEL-5, read-out: LC 50%; for GI 100%: Melanoma

C=C1CCC2C(C)(C)CCC[C@]2(C)C1CC/C(C)=C\CC/C(C)=N/NC(N)=S (stereo partly shown) [Compound 36]
GI50 [1]: 194 nM
CC50 [1]: 6980 nM
GI 100% [1]: 0.889 µM
GI50 [2]: 351 nM
CC50 [2]: 3670 nM
GI 100% [2]: 1.35 µM
GI50 [3]: 372 nM
CC50 [3]: 4300 nM
GI 100% [3]: 1.26 µM
IC90 ([4]; Homo sapiens, alamar blue): 1 µg/mL (≈ 2.48 µM)
activity in KRAS-mutation-harboring cancer cells (in words) [5]: active
GI 100% [6]: 0.907 µM
GI50 [6]: 252 nM
CC50 [6]: 3020 nM
GI50 [7]: 1320 nM
CC50 [7]: 8780 nM
GI 100% [7]: 3.4 µM
GI50 [8]: 296 nM
CC50 [8]: 3470 nM
GI 100% [8]: 1.08 µM
GI50 [9]: 77.3 nM
CC50 [9]: 7390 nM
GI 100% [9]: 1.1 µM
GI 100% [10]: 0.451 µM
GI50 [10]: 184 nM
CC50 [10]: 1460 nM
GI 100% [11]: 0.545 µM
GI50 [12]: 366 nM
CC50 [12]: 3780 nM
GI 100% [12]: 1.43 µM
GI 100% [13]: 1.3 µM
GI50 [13]: 302 nM
CC50 [13]: 4070 nM
GI50 [14]: 1090 nM
CC50 [14]: 5740 nM
GI 100% [14]: 2.5 µM
GI50 [15]: 265 nM
CC50 [15]: 3830 nM
GI 100% [15]: 1.34 µM
GI50 [16]: 1260 nM
CC50 [16]: 6990 nM
GI 100% [16]: 2.97 µM
degree of selectivity between BJ-TERT/LT/ST/RAS^V12 and BJ-TERT [17]: up to 16 fold
growth inhibitory activity and selectivity in the BJ cell system (in words) ([17]; structural analogs and hits): slightly lower potency and selectivity than the original hit
GI50 [18]: 550 nM
CC50 [18]: 4570 nM
GI 100% [18]: 1.83 µM
GI50 [19]: 341 nM
CC50 [19]: 3270 nM
GI 100% [19]: 1.36 µM
GI50 [20]: 204 nM
CC50 [20]: 4200 nM
GI50 [21]: 203 nM
CC50 [21]: 1320 nM
GI 100% [21]: 0.478 µM
effect of iron chelators on compound activity / induced cell death [22]: significantly inhibited
GI50 [23]: 181 nM
CC50 [23]: 2490 nM
GI 100% [23]: 0.485 µM
GI50 [24]: 469 nM
CC50 [24]: 4470 nM
GI 100% [24]: 1.8 µM
GI50 [25]: 175 nM
CC50 [25]: 3000 nM
GI 100% [25]: 0.781 µM
GI50 [26]: 209 nM
CC50 [26]: 3050 nM
GI 100% [26]: 0.898 µM

COC(=O)c1ccc(C2c3[nH]c4ccccc4c3CC(C(=O)OC)N2C(=O)CCl)cc1 (stereo not shown) [Compound 27]
GI50 [1]: 43.1 nM
CC50 [1]: 6990 nM
GI 100% [1]: 2.22 µM
GI50 [2]: 1250 nM
CC50 [2]: 6120 nM
GI 100% [2]: 2.77 µM
GI50 [3]: 745 nM
CC50 [3]: > 10000 nM
GI 100% [3]: 3.06 µM
concentration at which growth was inhibited (as low as) [4]: ≥ 0.01 µg/mL
concentration at which growth was inhibited (as low as) ([4]; 48 hours): ≥ 0.01 µg/mL
activity in KRAS-mutation-harboring cancer cells (in words) [5]: active in all oncogenic-KRAS-harboring cancer cell lines tested
GI 100% [6]: 0.473 µM
GI50 [6]: 60.3 nM
CC50 [6]: 2520 nM
GI50 [7]: 400 nM
CC50 [7]: 6580 nM
GI 100% [7]: 1.6 µM
GI50 [8]: 1900 nM
CC50 [8]: 8250 nM
GI 100% [8]: 3.96 µM
GI50 [9]: 1020 nM
CC50 [9]: 7390 nM
GI 100% [9]: 2.74 µM
GI 100% [10]: 3.44 µM
GI50 [10]: 1670 nM
CC50 [10]: 7070 nM
GI 100% [11]: 0.537 µM
GI50 [12]: 187 nM
CC50 [12]: 3250 nM
GI 100% [12]: 1.05 µM
GI 100% [13]: 0.316 µM
GI50 [13]: 131 nM
CC50 [13]: 765 nM
GI50 [14]: 69.2 nM
CC50 [14]: 577 nM
GI 100% [14]: 0.218 µM
GI50 [15]: 782 nM
CC50 [15]: > 10000 nM
GI 100% [15]: 3.98 µM
GI50 [16]: 1370 nM
CC50 [16]: > 10000 nM
GI 100% [16]: 7.46 µM
degree of selectivity against HRAS^G12V ([17]; oncogenic-RAS-expressing vs non-oncogenic-RAS-expressing BJ cells): four-fold
GI50 [18]: 406 nM
CC50 [18]: 4600 nM
GI 100% [18]: 1.53 µM
GI50 [19]: 1200 nM
CC50 [19]: 9180 nM
GI 100% [19]: 3.32 µM
GI50 [20]: 353 nM
CC50 [20]: 6590 nM
GI50 [21]: 182 nM
CC50 [21]: 826 nM
GI 100% [21]: 0.387 µM
effect of iron chelators on compound activity / induced cell death [22]: suppressed by all of these iron chelators moderately; also recorded: significantly inhibited
GI50 [23]: 1300 nM
CC50 [23]: 6930 nM
GI 100% [23]: 3 µM
GI50 [24]: 188 nM
CC50 [24]: 4150 nM
GI 100% [24]: 1.19 µM
GI50 [25]: 1710 nM
CC50 [25]: 8190 nM
GI 100% [25]: 3.74 µM
GI50 [26]: 1380 nM
CC50 [26]: 5160 nM
GI 100% [26]: 2.67 µM
